Measured values reported in publication PMC5564600 (Oncotarget, 2017).

Tests used:
Experiment in all cases: biochemical
Format in all cases: binding
[1] = biological target: T1, panel of 442 kinases (Homo sapiens, UniProt O94806); conditions: kinase PRKD3; for remaining activity at 1 µM: read-out: PRKD3 (% of control at 1 µM)
T1 construct: purchased Ambit Biosciences (scanMAXX KINOMEscan)
T1 sequence (O94806 1-890): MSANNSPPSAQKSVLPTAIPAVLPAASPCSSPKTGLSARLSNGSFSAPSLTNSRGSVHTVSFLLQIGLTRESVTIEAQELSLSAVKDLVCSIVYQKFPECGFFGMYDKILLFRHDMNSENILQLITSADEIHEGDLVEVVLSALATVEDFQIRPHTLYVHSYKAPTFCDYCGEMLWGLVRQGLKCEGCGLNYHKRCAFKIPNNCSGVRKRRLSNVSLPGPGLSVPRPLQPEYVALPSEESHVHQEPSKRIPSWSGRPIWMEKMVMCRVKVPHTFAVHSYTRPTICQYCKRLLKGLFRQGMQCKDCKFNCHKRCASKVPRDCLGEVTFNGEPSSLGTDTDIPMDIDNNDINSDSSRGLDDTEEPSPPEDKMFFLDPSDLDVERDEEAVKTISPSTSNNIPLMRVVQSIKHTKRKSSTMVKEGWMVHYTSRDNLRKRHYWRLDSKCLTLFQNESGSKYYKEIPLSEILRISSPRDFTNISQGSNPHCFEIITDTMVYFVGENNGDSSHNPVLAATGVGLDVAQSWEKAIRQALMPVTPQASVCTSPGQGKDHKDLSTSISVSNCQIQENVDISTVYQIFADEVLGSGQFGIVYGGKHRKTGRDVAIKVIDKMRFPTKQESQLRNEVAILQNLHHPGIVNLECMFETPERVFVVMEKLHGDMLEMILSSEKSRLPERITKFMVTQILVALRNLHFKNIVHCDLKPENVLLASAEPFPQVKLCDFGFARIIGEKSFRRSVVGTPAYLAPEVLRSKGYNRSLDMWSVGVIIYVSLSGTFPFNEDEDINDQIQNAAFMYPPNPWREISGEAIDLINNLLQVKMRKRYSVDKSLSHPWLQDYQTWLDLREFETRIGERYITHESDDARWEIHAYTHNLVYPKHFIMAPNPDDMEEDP

[2] = biological target: T2, panel of 442 kinases (Homo sapiens, UniProt O95747); conditions: kinase OSR1; for remaining activity at 1 µM: read-out: % of control at 1 µM
T2 construct: purchased Ambit Biosciences (scanMAXX KINOMEscan)

[3] = biological target: T3, panel of 442 kinases (Homo sapiens, UniProt Q8IWQ3); conditions: BRSK2; for remaining activity at 1 µM: read-out: % of control at 1 µM
T3 construct: purchased Ambit Biosciences (scanMAXX KINOMEscan)
T3 sequence (Q8IWQ3 1-736): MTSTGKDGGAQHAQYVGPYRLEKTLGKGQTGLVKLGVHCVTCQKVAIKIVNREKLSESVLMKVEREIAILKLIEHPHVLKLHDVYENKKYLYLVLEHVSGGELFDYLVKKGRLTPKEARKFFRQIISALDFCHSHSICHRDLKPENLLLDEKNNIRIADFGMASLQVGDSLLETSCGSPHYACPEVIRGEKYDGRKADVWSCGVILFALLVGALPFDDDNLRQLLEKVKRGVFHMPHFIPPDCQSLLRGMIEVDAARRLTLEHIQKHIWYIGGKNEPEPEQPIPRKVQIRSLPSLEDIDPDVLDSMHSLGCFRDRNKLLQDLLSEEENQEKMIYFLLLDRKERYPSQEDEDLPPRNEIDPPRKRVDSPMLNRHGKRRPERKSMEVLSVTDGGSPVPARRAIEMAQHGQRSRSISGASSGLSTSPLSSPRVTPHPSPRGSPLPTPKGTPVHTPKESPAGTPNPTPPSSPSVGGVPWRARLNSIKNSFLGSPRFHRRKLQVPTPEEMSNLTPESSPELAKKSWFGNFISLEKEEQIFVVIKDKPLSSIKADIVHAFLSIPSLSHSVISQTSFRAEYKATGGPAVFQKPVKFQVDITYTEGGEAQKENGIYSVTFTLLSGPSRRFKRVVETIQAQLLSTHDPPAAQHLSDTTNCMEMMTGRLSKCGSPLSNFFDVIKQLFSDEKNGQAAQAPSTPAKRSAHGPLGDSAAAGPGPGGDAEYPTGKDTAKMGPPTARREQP

[4] = biological target: T4, panel of 442 kinases (Homo sapiens, UniProt O00329); conditions: kinase PIK3CD; 1 µM; read-out: % of control at 1 µM
T4 construct: purchased Ambit Biosciences (scanMAXX KINOMEscan)
T4 sequence (O00329 1-1044): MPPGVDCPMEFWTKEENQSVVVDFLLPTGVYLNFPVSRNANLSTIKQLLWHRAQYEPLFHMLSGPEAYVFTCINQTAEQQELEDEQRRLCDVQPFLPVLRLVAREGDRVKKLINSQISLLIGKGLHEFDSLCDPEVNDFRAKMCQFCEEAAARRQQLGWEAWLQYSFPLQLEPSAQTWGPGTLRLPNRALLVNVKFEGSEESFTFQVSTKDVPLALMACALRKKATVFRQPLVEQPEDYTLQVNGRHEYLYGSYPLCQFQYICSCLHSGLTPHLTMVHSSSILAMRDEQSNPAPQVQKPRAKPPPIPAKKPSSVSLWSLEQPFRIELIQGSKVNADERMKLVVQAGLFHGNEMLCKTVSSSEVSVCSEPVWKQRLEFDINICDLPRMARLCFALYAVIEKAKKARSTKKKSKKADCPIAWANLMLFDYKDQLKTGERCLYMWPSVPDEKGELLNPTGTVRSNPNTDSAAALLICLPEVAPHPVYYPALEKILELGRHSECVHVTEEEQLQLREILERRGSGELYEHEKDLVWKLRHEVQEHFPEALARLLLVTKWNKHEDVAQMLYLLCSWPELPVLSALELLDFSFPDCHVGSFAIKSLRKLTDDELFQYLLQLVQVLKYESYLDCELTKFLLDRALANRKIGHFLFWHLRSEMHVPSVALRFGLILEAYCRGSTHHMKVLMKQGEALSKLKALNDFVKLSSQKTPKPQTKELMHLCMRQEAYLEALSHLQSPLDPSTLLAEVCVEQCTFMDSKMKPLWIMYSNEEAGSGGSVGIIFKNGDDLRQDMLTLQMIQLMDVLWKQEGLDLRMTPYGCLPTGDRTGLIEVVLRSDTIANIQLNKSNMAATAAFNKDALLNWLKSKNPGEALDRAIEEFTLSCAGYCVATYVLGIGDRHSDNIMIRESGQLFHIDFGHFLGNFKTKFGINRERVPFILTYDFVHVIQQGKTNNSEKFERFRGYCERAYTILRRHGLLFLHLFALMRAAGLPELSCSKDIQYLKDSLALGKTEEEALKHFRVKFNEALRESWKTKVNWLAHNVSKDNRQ

[5] = 10 µM, read-out: % of control at 10 µM

T2 sequence (O95747 whole entry): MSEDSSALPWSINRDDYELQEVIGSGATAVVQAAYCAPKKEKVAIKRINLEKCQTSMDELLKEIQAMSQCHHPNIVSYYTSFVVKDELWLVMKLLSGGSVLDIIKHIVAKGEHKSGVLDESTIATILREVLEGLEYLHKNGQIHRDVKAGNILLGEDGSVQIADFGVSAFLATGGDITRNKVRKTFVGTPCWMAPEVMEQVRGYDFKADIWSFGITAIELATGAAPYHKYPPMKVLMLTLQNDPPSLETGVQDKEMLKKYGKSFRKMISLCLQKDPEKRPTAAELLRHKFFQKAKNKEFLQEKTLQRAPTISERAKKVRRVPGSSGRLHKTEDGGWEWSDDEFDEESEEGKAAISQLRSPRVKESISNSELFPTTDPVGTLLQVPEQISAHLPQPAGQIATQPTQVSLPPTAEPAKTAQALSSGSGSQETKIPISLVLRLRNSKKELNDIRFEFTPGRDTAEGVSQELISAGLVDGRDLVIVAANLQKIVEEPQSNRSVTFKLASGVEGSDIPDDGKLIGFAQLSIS

SMILES: Nc1cc(C(F)(F)F)c(-c2cc(N3CCOCC3)nc(N3CCOCC3)n2)cn1 [Buparlisib]
- remaining activity at 1 µM [1]: 94%
- remaining activity at 10 µM ([1]; 10 µM, read-out: PRKD3 (% of control at 10 µM)): 100%
- remaining activity at 1 µM [2]: 97%
- remaining activity at 10 µM [2, 5]: 100%
- remaining activity at 1 µM [3]: 100%
- remaining activity at 10 µM [3, 5]: 100%

SMILES: Cn1c(=O)n(-c2ccc(C(C)(C)C#N)cc2)c2c3cc(-c4cnc5ccccc5c4)ccc3ncc21 [Dactolisib, 2-methyl-2-[4-(3-methyl-2-oxo-8-quinolin-3-yl-2,3-dihydroimidazo[4,5-c]quinolin-1-yl)-phenyl] propionitrile]
- remaining activity at 1 µM [4]: 12%
- remaining activity at 1 µM [1]: 100%
- remaining activity at 1 µM [2]: 91%
- remaining activity at 1 µM [3]: 91%

SMILES: COc1ncc(-c2ccc3nccc(-c4ccnnc4)c3c2)cc1NS(=O)(=O)c1ccc(F)cc1F [Omipalisib]
- remaining activity at 1 µM [4]: 0%
- remaining activity at 1 µM [1]: 100%
- remaining activity at 1 µM [2]: 100%
- remaining activity at 1 µM [3]: 95%

SMILES: FC(F)c1nc2ccccc2n1-c1nc(N2CCOCC2)nc(N2CCOCC2)n1 [ZSTK474, 2-(difluoromethyl)-1-[4,6-di(4-morpholinyl)-1,3,5-triazin-2-yl]-1H-benzimidazole]
- remaining activity at 1 µM [4]: 0%
- remaining activity at 1 µM [1]: 100%
- remaining activity at 1 µM [2]: 82%
- remaining activity at 1 µM [3]: 100%
